Reference: EP4617278A1, “NUCLEOTIDE ANALOG, AND COMPOSITION AND USE THEREOF” (priority 2022, dated 2024)

These molecules were tested on SARS-CoV-2 replicon. Conditions: read-out: SARS-CoV-2 Replicon (Huh-7cell) EC50.
Assay type: cell-based
In the case of `CCC(=O)O[C@H]1[C@@H](OC(=O)CC)[C@](C#N)(c2ccc3c(N)ncnn23)O[C@@H]1COP(=O)(OCOC(=O)OC(C)C)OCOC(=O)OC(C)C` [Compound 18, (2R,3R,4R,5R)-2-(4-aminopyrrolo[2,1-f][1,2,4]triazin-7-yl)-5-((((bis(((isopropoxycarbonyl)oxy)methoxy))phosphoryl)oxy)methyl)-2-cyanotetrahydrofuran-3,4-diyl dipropionate], the EC50 is reported as < 0.005 µM. `CCC(=O)O[C@H]1[C@@H](OC(=O)CC)[C@](C#N)(c2ccc3c(N)ncnn23)O[C@@H]1CO[P@@](=O)(N[C@@H](C)C(=O)OC(C)C)OCOC(=O)OC(C)C` [Compound 2b, (2R,3R,4R,5R)-2-(4-aminopyrrolo[2,1-f][1,2,4]triazin-7-yl)-2-cyano-5-((((S)-(((S)-1-isopropoxy-1-oxopropan-2-yl)amino)(((isopropoxycarbonyl)oxy)methoxy)phosphoryl)oxy)methyl)tetrahydrofuran-3,4-diyl dipropionate] was tested, and the EC50 was ≤ 0.005 µM. Work on `CCC(=O)O[C@H]1[C@@H](OC(=O)CC)[C@](C#N)(c2ccc3c(N)ncnn23)O[C@@H]1CO[P@](=O)(N[C@@H](C)C(=O)OCC(CC)CC)OCOC(=O)OC(C)C` [Compound 6a, (2R,3R,4R,5R)-2-(4-aminopyrrolo[2,1-f][1,2,4]triazin-7-yl)-2-cyano-5-((((R)-(((S)-1-(2-ethylbutoxy)-1-oxopropan-2-yl)amino)(((isopropoxycarbonyl)oxy)methoxy)phosphoryl)oxy)methyl)tetrahydrofuran-3,4-diyl dipropionate] yielded an EC50 of 0.005 to 0.01 µM. Work on `CC(C)C(=O)O[C@H]1[C@@H](OC(=O)C(C)C)[C@](C#N)(c2ccc3c(N)ncnn23)O[C@@H]1CO[P@](=O)(N[C@@H](Cc1ccccc1)C(=O)OC1CCC1)Oc1ccccc1` [Compound 63a] yielded an EC50 of 0.01 to 0.05 µM. With `CC(=O)O[C@H]1[C@@H](OC(C)=O)[C@](C#N)(c2ccc3c(N)ncnn23)O[C@@H]1COP(=O)(OCOC(=O)OC(C)C)OCOC(=O)OC(C)C` [Compound 17, (2R,3R,4R,5R)-2-(4-aminopyrrolo[2,1-f][1,2,4]triazin-7-yl)-5-((((bis(((isopropoxycarbonyl)oxy)methoxy)phosphoryl))oxy)methyl)-2-cyanotetrahydrofuran-3,4-diyl diacetate] the EC50 was < 0.005 µM. For `CCC(=O)O[C@H]1[C@@H](OC(=O)CC)[C@](C#N)(c2ccc3c(N)ncnn23)O[C@@H]1CO[P@@](=O)(OCOC(=O)OC(C)C)Oc1ccc(C(C)(C)C)cc1` [Compound 23b, ((2R,3R,4R,5R)-2-(4-aminopyrrolo[2,1-f][1,2,4]triazin-7-yl)-5-((((R)-(4-tert-butylphenoxy)(((isopropoxycarbonyl)oxy)methoxy)phosphoryl)oxy)methyl)-2-cyanotetrahydrofuran-3,4-diyl dipropionate], the EC50 was 0.005 to 0.01 µM. In the case of `CCC(CC)COC(=O)[C@H](C)N[P@@](=O)(OCOC(=O)C(C)(C)C)OC[C@H]1O[C@@](C#N)(c2ccc3c(N)ncnn23)[C@H](OC(C)=O)[C@@H]1OC(C)=O` [Compound 9b, (2R,3R,4R,5R)-2-(4-aminopyrrolo[2,1-f][1,2,4]triazin-7-yl)-2-cyano-5-((((S)-(((S)-1-(2-ethylbutoxy)-1-oxopropan-2-yl)amino)((pivaloyloxy)methoxy)phosphoryl)oxy)methyl)tetrahydrofuran-3,4-diyl diacetate], the EC50 is reported as ≤ 0.005 µM. In the case of `CCC(CC)COC(=O)[C@H](Cc1ccccc1)N[P@@](=O)(OC[C@H]1O[C@@](C#N)(c2ccc3c(N)ncnn23)[C@H](OC(=O)C(C)C)[C@@H]1OC(=O)C(C)C)Oc1ccccc1` [Compound 41a, (2R,3R,4R,5R)-2-(4-aminopyrrolo[2,1-f][1,2,4]triazin-7-yl)-2-cyano-5-((((R)-(((S)-1-(2-ethylbutoxy)-1-oxo-3-phenylpropan-2-yl)amino)(phenoxy)phosphoryl)oxy)methyl)tetrahydrofuran-3,4-diyl bis(2-methylpropionate)], the EC50 is reported as 0.05 to 0.5 µM. For `CC(C)OC(=O)OCO[P@@](=O)(OC[C@H]1O[C@@](C#N)(c2ccc3c(N)ncnn23)[C@H](OC(=O)C(C)C)[C@@H]1OC(=O)C(C)C)Oc1ccc(C(C)(C)C)cc1` [Compound 24a, (2R,3R,4R,5R)-2-(4-aminopyrrolo[2,1-f][1,2,4]triazin-7-yl)-5-((((S)-(4-tert-butylphenoxy)(((isopropoxycarbonyl)oxy)methoxy)phosphoryl)oxy)methyl)-2-cyanotetrahydrofuran-3,4-diyl bis(2-methylpropionate)], the EC50 was < 0.005 µM. In the case of `CC(C)OC(=O)OCOP(=O)(OCOC(=O)OC(C)C)OC[C@H]1O[C@@](C#N)(c2ccc3c(N)ncnn23)[C@H](OC(=O)C(C)(C)C)[C@@H]1OC(=O)C(C)(C)C` [Compound 20, (2R,3R,4R,5R)-2-(4-aminopyrrolo[2,1-f][1,2,4]triazin-7-yl)-5-((((bis(((isopropoxycarbonyl)oxy)methoxy))phosphoryl)oxy)methyl)-2-cyanotetrahydrofuran-3,4-diyl bis(2,2-dimethylpropionate)], the EC50 is reported as 0.01 to 0.05 µM. For `CCC(CC)COC(=O)[C@H](C)N[P@@](=O)(OCOC(=O)C(C)(C)C)OC[C@H]1O[C@@](C#N)(c2ccc3c(N)ncnn23)[C@H](OC(=O)C(C)C)[C@@H]1OC(=O)C(C)C` [Compound 11b, (2R,3R,4R,5R)-2-(4-aminopyrrolo[2,1-f][1,2,4]triazin-7-yl)-2-cyano-5-((((S)-(((S)-1-(2-ethylbutoxy)-1-oxopropan-2-yl)amino)((pivaloyloxy)methoxy)phosphoryl)oxy)methyl)tetrahydrofuran-3,4-diyl bis(2-methylpropionate)], the EC50 was < 0.005 µM. `CCCCCOC(=O)C[C@H](N[P@@](=O)(OC[C@H]1O[C@@](C#N)(c2ccc3c(N)ncnn23)[C@H](OC(=O)C(C)C)[C@@H]1OC(=O)C(C)C)Oc1ccc(C(C)(C)C)cc1)C(=O)OCCCCC` [Compound 39a, (2R,3R,4R,5R)-2-(4-aminopyrrolo[2,1-f][1,2,4]triazin-7-yl)-2-cyano-5-((((R)-(((S)-1,4-dipentyloxy-1,4-dioxobutan-2-yl)amino)(4-tert-butylphenoxy)phosphoryl)oxy)methyl)tetrahydrofuran-3,4-diyl bis(2-methylpropionate)] was tested, and the EC50 was 0.05 to 0.5 µM. `CC(=O)OCO[P@@](=O)(OC[C@H]1O[C@@](C#N)(c2ccc3c(N)ncnn23)[C@H](OC(=O)C(C)C)[C@@H]1OC(=O)C(C)C)Oc1ccc(C(C)(C)C)cc1` [Compound 43a, (2R,3R,4R,5R)-2-(4-aminopyrrolo[2,1-f][1,2,4]triazin-7-yl)-5-(((((S)-acetoxylmethoxy)(4-tert-butylphenoxy)phosphoryl)oxy)methyl)-2-cyanotetrahydrofuran-3,4-diyl bis(2-methylpropionate)] gave an EC50 of 0.005 to 0.01 µM. With “(2R,3R,4R,5R)-2-(4-aminopyrrolo[2,1-f][1,2,4]triazin-7-yl)-2-cyano-5-((((R)-(((S)-1-(2-ethylbutoxy)-1-oxopropan-2-yl)amino)(((isopropoxycarbonyl)oxy)methoxy)phosphoryl)oxy)methyl)tetrahydrofuran-3,4-diyl diacetate [Compound 5a]” the EC50 was 0.05 to 0.5 µM. In the case of `CC(C)OC(=O)OCOP(=O)(OCOC(=O)OC(C)C)OC[C@H]1O[C@@](C#N)(c2ccc3c(N)ncnn23)[C@H](OC(=O)C(C)C)[C@@H]1OC(=O)C(C)C` [Compound 19, (2R,3R,4R,5R)-2-(4-aminopyrrolo[2,1-f][1,2,4]triazin-7-yl)-5-((((bis(((isopropoxycarbonyl)oxy)methoxy))phosphoryl)oxy)methyl)-2-cyanotetrahydrofuran-3,4-diyl bis(2-methylpropionate)], the EC50 is reported as < 0.005 µM. `CCCCCOC(=O)C[C@H](N[P@](=O)(OC[C@H]1O[C@@](C#N)(c2ccc3c(N)ncnn23)[C@H](OC(=O)C(C)C)[C@@H]1OC(=O)C(C)C)Oc1ccccc1)C(=O)OCCCCC` [Compound 38b, (2R,3R,4R,5R)-2-(4-aminopyrrolo[2,1-f][1,2,4]triazin-7-yl)-2-cyano-5-((((S)-(((S)-1,4-dipentyloxy-1,4-dioxobutan-2-yl)amino)(phenoxy)phosphoryl)oxy)methyl)tetrahydrofuran-3,4-diyl bis(2-methylpropionate)] gave an EC50 of 0.01 to 0.05 µM. `[2H]c1cc([C@]2(C#N)O[C@H](COP(=O)(OCOC(=O)OC(C)C)OCOC(=O)OC(C)C)[C@@H](OC(=O)C(C)C)[C@H]2OC(=O)C(C)C)n2ncnc(N)c12` [Compound 21, (2R,3R,4R,5R)-2-(4-amino-5-deuteriopyrrolo[2,1-f][1,2,4]triazin-7-yl)-5-((((bis(((isopropoxycarbonyl)oxy)methoxy))phosphoryl)oxy)methyl)-2-cyanotetrahydrofuran-3,4-diyl bis(2-methylpropionate)] was tested, and the EC50 was < 0.005 µM. With `CCC(CC)COC(=O)C[C@H](N[P@@](=O)(OC[C@H]1O[C@@](C#N)(c2ccc3c(N)ncnn23)[C@H](OC(=O)C(C)C)[C@@H]1OC(=O)C(C)C)Oc1ccccc1)C(=O)OCC(CC)CC` [Compound 62a, (2R,3R,4R,5R)-2-(4-aminopyrrolo[2,1-f][1,2,4]triazin-7-yl)-2-cyano-5-((((R)-(((S)-1,4-bis(2-ethylbutoxy)-1,4-dioxobutan-2-yl)amino)(phenoxy)phosphoryl)oxy)methyl)tetrahydrofuran-3,4-diyl bis(2-methylpropionate)] the EC50 was 0.05 to 0.5 µM. With `CCC(CC)COC(=O)[C@H](C)N[P@](=O)(OCOC(=O)OC(C)C)OC[C@H]1O[C@@](C#N)(c2ccc3c(N)ncnn23)[C@H](OC(=O)C(C)C)[C@@H]1OC(=O)C(C)C` [Compound 7a, (2R,3R,4R,5R)-2-(4-aminopyrrolo[2,1-f][1,2,4]triazin-7-yl)-2-cyano-5-((((R)-(((S)-1-(2-ethylbutoxy)-1-oxopropan-2-yl)amino)(((isopropoxycarbonyl)oxy)methoxy)phosphoryl)oxy)methyl)tetrahydrofuran-3,4-diyl bis(2-methylpropionate)] the EC50 was 0.01 to 0.05 µM. Molecule `CCC(=O)O[C@H]1[C@@H](OC(=O)CC)[C@](C#N)(c2ccc3c(N)ncnn23)O[C@@H]1CO[P@](=O)(N[C@@H](C)C(=O)OCC(CC)CC)OCOC(=O)C(C)(C)C` [Compound 10a, (2R,3R,4R,5R)-2-(4-aminopyrrolo[2,1-f][1,2,4]triazin-7-yl)-2-cyano-5-((((R)-(((S)-1-(2-ethylbutoxy)-1-oxopropan-2-yl)amino)((pivaloyloxy)methoxy)phosphoryl)oxy)methyl)tetrahydrofuran-3,4-diyl dipropionate] has an EC50 of 0.01 to 0.05 µM.
